Test results: patent EP4659750A1, “PHARMACEUTICAL COMPOSITION CONTAINING ß-LACTAMASE INHIBITOR AND USE THEREOF” (Evopoint Biosciences Co., Ltd., priority 2023, dated 2024)
In brackets after ≈: the same amount, converted by molar mass. Like-named read-outs stand apart in the source and are kept apart here.

Assays:
[1] = tested on: Acinetobacter baumannii AR0274; assay: Neutropenic mouse thigh infection model, Example 3; type: in vivo; details: doses at 1,3,5,7 h, thighs 9 h after inoculation
Description: (§1) In the following examples, the tests are conducted following the steps below. • (1) Immunization of mice: All mice are injected intraperitoneally with 150 mg/kg cyclophosphamide 4 days before inoculation and 100 mg/kg cyclophosphamide 1 day before inoculation to reduce their neutrophils by immunosuppression. […] The mice are inoculated approximately 24 hours after the second administration of the immunosuppressant. • (2) Bacterial culture: All bacterial strains used for inoculation are prepared from overnight broth cultures. In brief, each strain is allowed to grow in cation-adjusted MuellerHinton broth in a shaking incubator (300 RPM) at 37°C. The overnight cultures are washed twice with phosphate buffer solution (PBS) and adjusted to the optimal concentration in PBS.
(§2) For intravenous (IV) administration, the solution of Compound 1 is prepared using a Captisol vehicle, which is 25 mM acetate buffer (prepared with sodium acetate trihydrate) containing 10% w/v Captisol. The pH is adjusted to 5.0 with 2N acetic acid solution. A desired volume of buffer is added to the weighed sample, the desired concentration of Compound 1 is prepared in the buffer, which is then ultrasonically heated in a water bath until a clear solution was obtained. The administrated volume of Compound 1 is 5 mL/kg.
(§3) For subcutaneous (SC) administration, an imipenem solution or imipenem-cilastatin solution is prepared in sterile PBS by using imipenem monohydrate or imipenem monohydrate and cilastatin sodium. The desired concentration of imipenem is prepared by adding PBS to the solid powder, then sonicating the mixture in a water bath until a clear solution is obtained, and the administrated volume is 10 mL/kg.
The mice were divided into 16 groups, with 5 mice in each group. The test was carried out following the above experimental steps, the inoculation amount of Acinetobacter baumannii AR0274 was 1.8×10^6 CFU per gram of thigh tissue, and the administration was conducted according to the scheme in the table below.
(§4) For Groups 2 to 16 above, animals were euthanized 9 hours after inoculation using an overdose of sodium pentobarbital, followed by confirmation of death by cervical dislocation. The thighs were dissected and weighed, then homogenized in an ice-cold sterile phosphate buffer using a Precellys microsphere homogenizer; and the homogenate was quantitatively cultured on drug-free agar (CLED or PSA) and incubated for 18-24 h at 37°C, followed by colony counting.
(§5) For the […] Group 1 (control group) above, animals were euthanized with an overdose of sodium pentobarbital 1 hour after inoculation. As described above, bilateral thighs were dissected and quantitatively cultured for use as final samples.

[2] = tested on: Klebsiella pneumoniae ARo113; assay: Neutropenic mouse thigh infection model, Example 4; type: in vivo; details: doses at 1,3,5,7 h, thighs 9 h after inoculation
Description: as §1, §2, §3
(§6) The mice were divided into 16 groups, with 5 mice in each group. The test was carried out following the above steps, the concentration of the bacterial solution of Klebsiella pneumoniae ARo113 was 4.0x10^6 CFU per gram of thigh tissues, and the administration was conducted according to the scheme in the table below.
as §4, with “12-16” for “18-24”, “30°C,” for “37°C,”
as §5

[3] = tested on: Pseudomonas aeruginosa ACC00680; assay: Neutropenic mouse thigh infection model, Example 1 (imipenem and Compound 1); type: in vivo; details: doses at 1,3,5,7 h, thighs 9 h after inoculation
Description: as §1, §2, §3
as §6, with “15” for “16”, “Pseudomonas aeruginosa ACC00680” for “Klebsiella pneumoniae ARo113”, “1.83×10^5 colony forming unit (CFU)” for “4.0x10^6 CFU”
as §4, with “15” for “16”
as §5

Klebsiella pneumoniae = assay: Mice neutropenic thigh infection model, human-simulated dosing regimen, Example 5; type: in vivo; details: monotherapy, human-simulated imipenem dosing regimen (500 mg, q6h, infused for 60 minutes); four strains
Description: A total of 15 bacterial strains (4 strains of Pseudomonas aeruginosa, 4 strains of Klebsiella pneumoniae and 7 strains of Acinetobacter baumannii, see the table below) were selected for dose study of Compound 1 in the mice neutropenic thigh infection model. In terms of administrated dose, imipenem was administered with a human-simulated dosing regimen (500 mg, q6h, infused for 60 minutes),and also combined with different doses of Compound 1.
At 0 h, the mean bacterial load in the thighs of mice was 5.92 ± 0.14 log10 CFU/thigh.

Pseudomonas aeruginosa = assay: as above; type: in vivo; details: monotherapy, human-simulated imipenem dosing regimen (500 mg, q6h, infused for 60 minutes); four strains; 24 h
Acinetobacter baumannii = assay: as above; type: in vivo; details: monotherapy, human-simulated imipenem dosing regimen (500 mg, q6h, infused for 60 minutes); seven strains; 24 h
OXA β-lactamases = assay: In vitro inhibition of OXA β-lactamases; type: biochemical, Acinetobacter baumannii; details: in vitro (background statement)
[4] = Solubility of Compound 1 (HPLC), selection of solubilizer type; type: physicochemical; details: for solubility at 24 h: read-out: Concentration
Description: The solubilization effect of sodium sulfobutylether-β-cyclodextrin (SBECD) and hydroxypropyl-β-cyclodextrin (HP-β-CD) on Compound 1 was investigated by taking the solubility in 50 mM pH 4.5 acetate buffer medium and water as a reference. […] Table Solubility of Compound 1 incubated for 24 h at 25°C
In the art, surfactants may also be used for solubilization. To further improve the solubility of Compound 1, a surfactant was added on the basis of SBECD to investigate the solubility. […] Table Solubility of Compound 1 incubated for 24 h at 25°C

[5] = tested on: Pseudomonas aeruginosa ACC00680; assay: Neutropenic mouse thigh infection model, Example 2 (imipenem, cilastatin and Compound 1); type: in vivo; details: Compound 1 96 mg/kg total IV; doses at 1,3,5,7 h; thighs 9 h after inoculation
Description: as §1, with “The overnight cultures are washed twice with phosphate buffer solution (PBS) and adjusted to the optimal concentration in PBS.” left out
as §4, §5

C[C@@H](O)[C@H]1C(=O)N2C(C(=O)O)=C(SCCN=CN)C[C@H]12 [Imipenem, imipenem monohydrate]
Change in Pre-Tx Log10 loading (CFU/g) ([1]; Imipenem 96 mg/kg total SC): 1.85 log10 CFU/g
Group geometric mean (CFU/g) ([1]; Imipenem 96 mg/kg total SC): 3.91×10^7 CFU/g
Log10 group geometric mean (CFU/g) ([1]; Imipenem 96 mg/kg total SC): 7.59 log10 CFU/g
Change in Pre-Tx Log10 loading (CFU/g) ([2]; Imipenem 96 mg/kg total SC): 0.93 log10 CFU/g
Group geometric mean (CFU/g) ([2]; Imipenem 96 mg/kg total SC): 1.34×10^7 CFU/g
Log10 group geometric mean (CFU/g) ([2]; Imipenem 96 mg/kg total SC): 7.13 log10 CFU/g
Change in Pre-Tx Log10 load ([3]; Imipenem 100 mg/kg total SC): 0.73 log10 CFU/g
Group geometric mean (CFU/g) ([3]; Imipenem 100 mg/kg total SC): 1.08×10^6 CFU/g
Log10 group geometric mean (CFU/g) ([3]; Imipenem 100 mg/kg total SC): 6.03 log10 CFU/g
mean increase in bacterial load (Klebsiella pneumoniae): 2.83 ± 0.81 log10 CFU/thigh
mean increase in bacterial load (Pseudomonas aeruginosa): 2.64 ± 1.18 log10 CFU/thigh
mean increase in bacterial load (Acinetobacter baumannii): 2.16 ± 0.74 log10 CFU/thigh

N=C1NC[C@@H](c2nnc([C@@H]3CC4(CC4)[C@@H]4CN3C(=O)N4OS(=O)(=O)O)o2)N1 [Compound 1]
Change in Pre-Tx Log10 loading (CFU/g) ([1]; Compound 1 96 mg/kg total IV): 1.53 log10 CFU/g
Log10 group geometric mean (CFU/g) ([1]; Compound 1 96 mg/kg total IV): 7.28 log10 CFU/g
Change in Pre-Tx Log10 loading (CFU/g) ([2]; Compound 1 96 mg/kg total): 1.11 log10 CFU/g
Log10 group geometric mean (CFU/g) ([2]; Compound 1 96 mg/kg total): 7.31 log10 CFU/g
Change in Pre-Tx Log10 load ([3]; Compound 1 50 mg/kg total IV): 0.36 log10 CFU/g
Log10 group geometric mean (CFU/g) ([3]; Compound 1 50 mg/kg total IV): 5.67 log10 CFU/g
Change in Pre-Tx Log10 load ([3]; Compound 1 75 mg/kg total IV): 0.98 log10 CFU/g
Log10 group geometric mean (CFU/g) ([3]; Compound 1 75 mg/kg total IV): 6.29 log10 CFU/g
Change in Pre-Tx Log10 load ([3]; Compound 1 100 mg/kg total IV): 1.35 log10 CFU/g
Log10 group geometric mean (CFU/g) ([3]; Compound 1 100 mg/kg total IV): 6.65 log10 CFU/g
inhibition of OXA β-lactamases (OXA β-lactamases): effectively inhibit
solubility at 24 h ([4]; 50 mm acetate buffer, pH 4.5, aqueous buffer, solubility in 50 mM acetate buffer (pH 4.5) (control), 24 h at 25°C): 3850 µg/mL (≈ 9.64 mM)
solubility at 24 h ([4]; aqueous hp-β-cd 10%, solubility in aqueous HP-β-CD 10%, 24 h at 25°C): 5000 µg/mL (≈ 12.5 mM)
solubility at 24 h ([4]; aqueous hp-β-cd 20%, solubility in aqueous HP-β-CD 20%, 24 h at 25°C): 6400 µg/mL (≈ 16 mM)
solubility at 24 h ([4]; aqueous hp-β-cd 30%, solubility in aqueous HP-β-CD 30%, 24 h at 25°C): 7720 µg/mL (≈ 19.3 mM)
solubility at 24 h ([4]; aqueous sbecd 10%, peg 400, organic solvent or mixture, solubility in aqueous SBECD 10% and PEG 400 5%, 24 h at 25°C): 6210 µg/mL (≈ 15.5 mM)
solubility at 24 h ([4]; aqueous sbecd 10%, peg 400, organic solvent or mixture, solubility in aqueous SBECD 10% and PEG 400 20%, 24 h at 25°C): 6350 µg/mL (≈ 15.9 mM)
solubility at 24 h ([4]; aqueous sbecd 10%, peg 400, organic solvent or mixture, solubility in aqueous SBECD 10% and PEG 400 40%, 24 h at 25°C): 6840 µg/mL (≈ 17.1 mM)
solubility at 24 h ([4]; aqueous sbecd 10%, pvp k12, solubility in aqueous SBECD 10% and PVP K12 0.5%, 24 h at 25°C): 6440 µg/mL (≈ 16.1 mM)
solubility at 24 h ([4]; aqueous sbecd 10%, pvp k12, solubility in aqueous SBECD 10% and PVP K12 1%, 24 h at 25°C): 6420 µg/mL (≈ 16.1 mM)
solubility at 24 h ([4]; aqueous sbecd 10%, pvp k12, solubility in aqueous SBECD 10% and PVP K12 2.5%, 24 h at 25°C): 6380 µg/mL (≈ 16 mM)
solubility at 24 h ([4]; aqueous sbecd 10%, solubility in aqueous SBECD 10%, 24 h at 25°C): 5960 µg/mL (≈ 14.9 mM)
solubility at 24 h ([4]; aqueous sbecd 20%, solubility in aqueous SBECD 20%, 24 h at 25°C): 8460 µg/mL (≈ 21.2 mM)
solubility at 24 h ([4]; aqueous sbecd 30%, solubility in aqueous SBECD 30%, 24 h at 25°C): 10500 µg/mL (≈ 26.3 mM)
solubility at 24 h ([4]; aqueous sbecd, poloxamer 188, solubility in aqueous SBECD 10% and Poloxamer 188 1%, 24 h at 25°C): 6750 µg/mL (≈ 16.9 mM)
solubility at 24 h ([4]; aqueous sbecd, pvp, poloxamer 188, solubility in aqueous SBECD 10%, PVP K12 0.5% and Poloxamer 188 1%, 24 h at 25°C): 6950 µg/mL (≈ 17.4 mM)
solubility at 24 h ([4]; aqueous sbecd, pvp, solutol hs15, solubility in aqueous SBECD 10%, PVP K12 0.5% and Solutol HS15 1%, 24 h at 25°C): 6870 µg/mL (≈ 17.2 mM)
solubility at 24 h ([4]; aqueous sbecd, pvp, tween 80, solubility in aqueous SBECD 10%, PVP K12 0.5% and Tween 80 1%, 24 h at 25°C): 6990 µg/mL (≈ 17.5 mM)
solubility at 24 h ([4]; aqueous sbecd, solutol hs15, solubility in aqueous SBECD 10% and Solutol HS15 1%, 24 h at 25°C): 6680 µg/mL (≈ 16.7 mM)
solubility at 24 h ([4]; aqueous sbecd, tween 80, solubility in aqueous SBECD 10% and Tween 80 1%, 24 h at 25°C): 6920 µg/mL (≈ 17.3 mM)
Concentration ([4]; solubility in aqueous SBECD 10%, 24 h at 25°C): 5.96 mg/mL
Concentration ([4]; solubility in water (control), incubated 24 h at 25°C): 0.6 mg/mL
solubility at 24 h ([4]; water, solubility in water (control), incubated 24 h at 25°C): 600 µg/mL (≈ 1.5 mM)
Change in Pre-Tx Log10 loading (CFU/g) [5]: 2.45 log10 CFU/g
Log10 group geometric mean (CFU/g) [5]: 7.51 log10 CFU/g
